In the supplement of paper PMC4862054:

Tests used:
Conditions in all cases: incubation time: 72 h
[1] = system: HCC1143; assay: drug sensitivity score (DSS), CellTiter-Blue viability (DSS (AUC-based score)); higher = stronger viability inhibition; extreme values may be limits of the assay
Experimental: (§1)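 DSRT with the CellTiter-Blue (resazurin reduction) viability readout, fluorescence 560/590 nm, 72 h incubation. Plates were normalised to DMSO and benzethonium chloride controls. DSS is computed from the area under the fitted dose-response curve (5 or 9 concentrations).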

[2] = system: MFM-223; assay: as above
Experimental: as §1

[3] = system: SK-BR-3; assay: as above
Experimental: as §1

[4] = system: BT-474; assay: as above
Experimental: as §1

[5] = system: HCC1599; assay: as above
Experimental: as §1

[6] = system: CAL-85-1; assay: as above
Experimental: as §1

[7] = system: MDA-MB-436; assay: as above
Experimental: as §1

[8] = system: MDA-MB-231; assay: as above
Experimental: as §1

[9] = system: HDQ-P1; assay: as above
Experimental: as §1

[10] = system: HCC1143; assay: normalised viability (% of control), CellTiter-Blue; higher = more viable cells (about 100 = DMSO control)
In short: (§2)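 The reported figure is normalised viability at a single listed concentration of the series. Breast cancer cell lines (20 µl suspension) went onto 384-well plates holding compound in 5 µl medium for 72 h. CellTiter-Blue (2.5 µl, 2 h, 37 °C) was read by fluorescence at 560/590 nm, and each plate was scaled to vehicle at 100 and a positive kill control at 0.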

[11] = system: MFM-223; assay: as above
In short: as §2

[12] = system: SK-BR-3; assay: as above
In short: as §2

[13] = system: CAL-148; assay: as above
In short: as §2

[14] = system: HCC1599; assay: as above
In short: as §2

[15] = system: BT-549; assay: as above
In short: as §2

[16] = system: CAL-85-1; assay: as above
In short: as §2

[17] = system: MDA-MB-436; assay: as above
In short: as §2

[18] = system: CAL-120; assay: as above
In short: as §2

[19] = system: HCC1937; assay: as above
In short: as §2

[20] = system: MDA-MB-468; assay: as above
In short: as §2

[21] = system: MDA-MB-231; assay: as above
In short: as §2

[22] = system: HDQ-P1; assay: as above
In short: as §2

[23] = system: DU-4475; assay: as above
In short: as §2

[24] = system: MDA-MB-453; assay: as above
In short: as §2

CC[C@@H]1C(=O)N(C)c2cnc(Nc3ccc(C(=O)N[C@H]4CC[C@H](N5CCN(CC6CC6)CC5)CC4)cc3OC)nc2N1C(C)C [Volasertib]
Conditions | drug sensitivity score
[1] | 13.4
[2] | 16.9
[3] | 19.8
[4] | 8.65
[5] | 0
[6] | 10.9
[7] | 3.18
[8] | 12.3
[9] | 5.17

normalised viability [%]
Conditions | 0.3 nM | 1 nM | 3 nM | 10 nM | 100 nM | 1000 nM
[10] | – | 86.3 | – | – | 41.2 | 41.2
[11] | – | 88.8 | – | – | 48.9 | 56.2
[12] | – | 105 | – | – | 20.7 | 24.1
[13] | 98.2 | – | 94.8 | 72 | – | –
[14] | – | 94.6 | – | – | 86.2 | 74
[15] | – | 94.9 | – | – | 36.9 | 41.6
[16] | 96.4 | – | 86.7 | 82.3 | – | –
[17] | – | 113 | – | – | 83.5 | 80.8
[18] | – | 91.1 | – | – | 26.8 | 24.7
[19] | – | 131 | – | – | 30.8 | 34.9
[20] | – | 104 | – | – | 45 | 51.9
[21] | – | 114 | – | – | 36.3 | 45.9
[22] | 108 | – | 84 | 76.4 | – | –
[23] | 98.4 | – | 88.2 | 86.1 | – | –
[24] | 117 | – | 89.9 | 46.2 | – | –

Cc1c(C(=O)Nc2ccc(N3C[C@@H](C)O[C@@H](C)C3)nc2)cccc1-c1ccc(OC(F)(F)F)cc1 [NVP-LDE225]
Conditions | drug sensitivity score
[1] | 0
[2] | 0
[3] | 0
[4] | 0
[5] | 0
[6] | 0
[7] | 0
[8] | 0
[9] | 0

normalised viability [%]
Conditions | 3 nM | 10 nM | 30 nM | 100 nM | 1000 nM | 10000 nM
[10] | – | 108 | – | – | 102 | 96.4
[11] | – | 93.5 | – | – | 93.8 | 88.2
[12] | – | 104 | – | – | 102 | 111
[13] | 99.6 | – | 101 | 106 | – | –
[14] | – | 105 | – | – | 90.5 | 102
[15] | – | 113 | – | – | 96 | 97.3
[16] | 100 | – | 86 | 104 | – | –
[17] | – | 83 | – | – | 29.2 | 67.3
[18] | – | 99.9 | – | – | 92.7 | 97
[19] | – | 38.8 | – | – | 92.7 | 82.1
[20] | – | 109 | – | – | 109 | 91.9
[21] | – | 121 | – | – | 102 | 82.9
[22] | 76.2 | – | 84 | 84.9 | – | –
[23] | 105 | – | 112 | 96 | – | –
[24] | 98.9 | – | 88.7 | 105 | – | –

Cc1c(N)nc([C@H](CC(N)=O)NC[C@H](N)C(N)=O)nc1C(=O)N[C@H](C(=O)N[C@H](C)[C@@H](O)[C@H](C)C(=O)N[C@H](C(=O)NCCc1nc(-c2nc(C(=O)NCCC[S+](C)C)cs2)cs1)[C@@H](C)O)[C@@H](OC1OC(CO)C(O)C(O)C1OC1OC(CO)C(O)C(OC(N)=O)C1O)c1cnc[nH]1 (stereo partly specified) [Bleomycin]
Conditions | drug sensitivity score
[1] | 9.95
[2] | 0
[3] | 0
[4] | 0
[5] | 0
[6] | 0
[7] | 4.58
[8] | 6.41
[9] | 0

normalised viability [%]
Conditions | 3 nM | 10 nM | 30 nM | 100 nM | 1000 nM | 10000 nM
[10] | – | 74.6 | – | – | 64.2 | 49.4
[11] | – | 106 | – | – | 107 | 100
[12] | – | 89.6 | – | – | 99.1 | 89.5
[13] | 88 | – | 82.5 | 87 | – | –
[14] | – | 134 | – | – | 112 | 118
[15] | – | 87.5 | – | – | 57.1 | 62.4
[16] | 101 | – | 94.9 | 96.6 | – | –
[17] | – | 92.3 | – | – | 79 | 44.7
[18] | – | 94.4 | – | – | 78.5 | 67.7
[19] | – | 92.2 | – | – | 54.7 | 28.2
[20] | – | 94.6 | – | – | 86.6 | 72.7
[21] | – | 88.7 | – | – | 70 | 60.3
[22] | 80.9 | – | 88.5 | 27.8 | – | –
[23] | 117 | – | 84.4 | 116 | – | –
[24] | 103 | – | 106 | 100 | – | –

Cn1nnc2c(C(N)=O)ncn2c1=O [Temozolomide]
Conditions | drug sensitivity score
[1] | 0
[2] | 0
[3] | 0
[4] | 0
[5] | 0
[6] | 0
[7] | 0
[8] | 0
[9] | 1.58

normalised viability [%]
Conditions | 3 nM | 10 nM | 30 nM | 100 nM | 1000 nM | 10000 nM
[10] | – | 90.5 | – | – | 95.9 | 102
[11] | – | 98.4 | – | – | 96.7 | 103
[12] | – | 95.1 | – | – | 99.8 | 113
[13] | 94 | – | 88.8 | 93 | – | –
[14] | – | 103 | – | – | 89.8 | 117
[15] | – | 105 | – | – | 91.6 | 74.7
[16] | 102 | – | 98.2 | 107 | – | –
[17] | – | 102 | – | – | 91.3 | 101
[18] | – | 101 | – | – | 104 | 100
[19] | – | 88.3 | – | – | 105 | 116
[20] | – | 92.3 | – | – | 89.5 | 99.1
[21] | – | 101 | – | – | 88 | 91
[22] | 95.6 | – | 88.5 | 27.3 | – | –
[23] | 108 | – | 95.3 | 113 | – | –
[24] | 112 | – | 108 | 100 | – | –
